Among the data in PubChem BioAssay (NCI) are TGI values, retold here.

Each structure is given as a SMILES string.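 1) Cells in 96-well plates. 2) Compound, 48 h, 5 concentrations. 3) Linear interpolation between surrounding doses. 4) Unreached endpoint = highest concentration. TGI: total growth inhibition.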

Holding throughout (test): inhibition of tumour cell growth, NCI panel, 48 h
Test [1] concerns 786-0 renal.
In test [2] the test system is A549 NSCLC.
The test system of test [3] is BT-549 breast.
Test [4] deals with CCRF-CEM leukemia.
Test [5] relates to HCT-15 colon.
Test [6] has as its system LOX IMVI melanoma.
In test [7] the test system is M14 melanoma.
The test system of test [8] is MCF7 breast.
The subject of test [9] is MDA-MB-231 breast.
The subject of test [10] is NCI-H23 lung.
Test [11] concerns NCI-H522 lung.
Test [12] relates to OVCAR-3 ovarian.
For test [13], the system named is OVCAR-5 ovarian.
Test [14] deals with PC-3 prostate.
The test system of test [15] is RXF 393 renal.
In test [16] the test system is SK-MEL-5 melanoma.
Test [17] has as its system SK-OV-3 ovarian.
Test [18] relates to SR leukemia.
The subject of test [19] is UACC-257 melanoma.

Turning to `C=C1C(=O)O[C@H]2[C@H]3O[C@@H](C[C@@H]12)[C@@]1(C)CC[C@H](O1)C(C)=CCC[C@H]3C`, the TGI amounted to 2.67 µM in test [1]; 6.96 µM in test [2]; 2.07 µM in test [3]; 1.98 µM in [4]; 3.2 µM in test [5]; 2.89 µM in test [6]. Also, the TGI in [7] is 3.15 µM; in test [8], 3.63 µM; in [9], 3.14 µM; in test [10], 2.96 µM; in [11], 3.42 µM; in [12], 2.7 µM. Further, the TGI is 11.5 µM in [13]; 2.97 µM in [14]; 3.75 µM in test [15]; 2.81 µM in test [16]; 16.2 µM in test [17]; 0.28 µM in test [18]. Also, in [19], the TGI was determined as 3.59 µM.
Regarding `COc1cc(/C=C2\C(=O)N(Cc3ccccc3)C(c3ccccc3)S2(=O)=O)cc(OC)c1OC` (stereo unspecified), the TGI in [1], in [2], in test [3], in [4], in test [5] and in [6] was more than 100 µM each time. The TGI in test [7], in test [8], in [9], in test [10], in test [11] and in test [12] was more than 100 µM each time. For the same compound, the TGI was more than 100 µM in [13]; more than 100 µM in test [14]; more than 100 µM in [15]; 51.8 µM in test [16]; more than 100 µM in [17]; 65.5 µM in test [18]. In addition, the TGI in test [19] is more than 100 µM.
As to `Nc1nc(N)c2[nH]cnc2n1` (tested in a mixture with another compound), the TGI in test [1] is more than 100 µM; in test [2], 47.4 µM; in [3], more than 100 µM; in test [4] it was more than 100 µM; in [5], more than 100 µM; in [6] it was more than 100 µM. The TGI in test [7] was 36.2 µM; in test [8], 21.7 µM; in test [9], more than 100 µM; in [10] it was 77.5 µM; in test [11], 54.2 µM; in [12], 74.4 µM. Also, the TGI in test [13] was more than 100 µM; in test [14] it was 94.6 µM; in test [15] it was 80.6 µM; in test [16], 85.3 µM; in [17], more than 100 µM; in test [18], more than 100 µM. In test [19], this compound registered a TGI of 55.2 µM.
With `CCOP(=O)(OCC)C1=C(c2ccccc2)OC(N)=C(C#N)C1c1ccc(Cl)cc1` (stereo unspecified), the TGI in test [1], in [2], in [3], in [4], in test [5] and in test [6] was more than 100 µM in each case. The TGI in test [7], in test [8], in test [9], in [10], in test [11] and in test [12] was more than 100 µM in each case. The TGI in test [13], in [14], in [15], in [16], in test [17] and in test [18] was more than 100 µM in each case. The compound also registered a TGI in test [19] of more than 100 µM.
